Common to all, as to type: in vivo
The subject of test [1] is Poa annua. The experiment in a line: Single application to warm season turfgrass according to the disclosed methods (summary statement). As to conditions: early post-emergence, for at least 120 days following application.
The subject of test [2] is Poa annua. The experiment in a line: Field trial, bermudagrass stands infested with Poa annua, Clayton, North Carolina, autumn 2022. As to conditions: FIG. 11. From the text: (§1) As used herein, the term “Abbott's percentage reduction,” in all of its forms, refers to a measure of percentage control relative to the population in an untreated control stand of turfgrass. Rather than representing a simple percentage control on a per treatment basis, the Abbott's percentage reduction measure accounts for naturally occurring shifts in the target population and limits rating bias over time. Abbott's percentage reduction may be represented by the following
Stands of bermudagrass infested with Poa annua were treated with thiencarbazone-methyl (TCM) at different stages of Poa annua development and under different climatological conditions in a set of trials conducted during the autumn of 2022 in Clayton, North Carolina. Stands of bermudagrass containing Poa annua in a pre-emergent growth phase were treated with thiencarbazone-methyl (TCM) on September 23rd. Stands of bermudagrass containing Poa annua in an early post-emergent growth state characterized by having two or fewer tillers were treated with thiencarbazone-methyl (TCM) on November 21st. Stands of bermudagrass containing Po annua in a late post-emergent growth state characterized by having more than two tillers were treated with thiencarbazone-methyl (TCM) on December 8th. The Clayton trial data is shown in FIG. 11 while FIG. 13 provides the corresponding environmental data for Clayton during the trials. […]

The test system of test [3] is Poa annua. The test can be described thus: Field trial, bermudagrass stands infested with Poa annua, Blacksburg, Virginia, autumn 2022. As to conditions: FIG. 10.
Text: as §1
Stands of bermudagrass infested with Poa annua were treated with thiencarbazone-methyl (TCM) at different stages of Poa annua development and under different climatological conditions in a set of trials conducted during the autumn of 2022 in Blacksburg, Virginia. Stands of bermudagrass containing Poa annua in a pre-emergent growth phase were treated with thiencarbazone-methyl (TCM) on September 14th. Stands of bermudagrass containing Poa annua in an early post-emergent growth state characterized by having two or fewer tillers were treated with thiencarbazone-methyl (TCM) on October 5th. Stands of bermudagrass containing Poa annua in a late post-emergent growth state characterized by having more than two tillers were treated with thiencarbazone-methyl (TCM) on November 9th. The Blacksburg trial data is shown in FIG. 10 while FIG. 12 provides the corresponding environmental data for Blacksburg during the trials. The Days After Application “DAA” shown in FIG. 10 refers to the days after thiencarbazone-methyl (TCM) was applied to the stands of bermudagrass containing Poa annua in a pre-emergent growth phase on Sep. 14, 2022. The horizontal line in FIG. 12 represents the temperature (66 degrees Fahrenheit) at which peak Poa annua germination has been observed. […] However, treatment of bermudagrass stands containing Poa annua at a later growth stage fell well below the minimum commercially acceptable 80% Abbott control threshold effectiveness.

Take `COC(=O)c1csc(C)c1S(=O)(=O)NC(=O)n1nc(OC)n(C)c1=O` [thiencarbazone-methyl, methyl 4-[(3-methoxy-4-methyl-5-oxo-1,2,4-triazole-1-carbonyl)sulfamoyl]-5-methylthiophene-3-carboxylate]: the “reduction in Poa annua population” value in the test on Poa annua [1] is listed as at least 80%. In addition, the “Abbott control threshold effectiveness” value in the test on Poa annua [2] (30 g/ha, early post-emergent growth phase (two or fewer tillers, treated November 21), 117 days after the pre-emergence treatment application) is on record as at least 80%; in the test with Poa annua [2] (Poa annua at a later growth stage (more than two tillers, treated December 8)) it was below 80%; in the test on Poa annua [3] (15 g/ha, early post-emergent growth phase (two or fewer tillers, treated October 5), 77, 91 and 148 days after the pre-emergence treatment application), at least 80%; in the test on Poa annua [3] (30 g/ha, early post-emergent growth phase (two or fewer tillers, treated October 5), 77, 91 and 148 days after the pre-emergence treatment application), at least 80%; with Poa annua [3] (Poa annua at a later growth stage (more than two tillers, treated November 9)), below 80%.
